Values joined by “and” are separate entries in the source; they are usually repeats but may differ in a detail not shown here. Equal values may be shown once.
Assays:
Format in all cases: physicochemical
[1] = Storage for one week at 40° C./75% RH and 25° C./97% RH, XRPD; details: for stability under storage: summary of scaled-up solid forms, conditions not restated
[2] = Intrinsic Dissolution Rate (IDR), Sirius inForm; details: for IDR Sector 1 average (pH 2.0) / IDR Sector 1 pH 2.0: pH 2.0, 37° C.; for IDR Sector 1 pH 2.0: individual runs; for XRPD Analysis Post Dissolution: solid form of disc after IDR analysis; for sector 1 IDR compared to free base form Compound 1 Form 1 / other forms: pH 2.0, comparison in words
Procedure: About 40 mg of the sample was compressed in a 6 mm disc recess, under 100 kg for 2 minutes, with greaseproof paper on the compression base, to form nondisintegrating discs. The discs were then plugged with a bung so that only one surface was exposed to the media during analysis and transferred to the Sirius inForm dissolution apparatus. Analysis was performed at 37° C. in 40 mL media (36 mL ISA water, 4 mL 0.1 M Acetate Phosphate Buffer). Dissolution data were collected over 4 pH sectors (pH 2.0, 5.5, 6.5, and 7.4) for a total of 2 hours—30 minutes per sector, with UV spectra collected every 30 seconds. A stir speed of 225 rpm was used with a 10 mm path length probe. The IDR was calculated based on the surface area of the 3/6/8 mm disc recess used (28.3 mm2 surface area). XRPD analysis was performed on all samples, both after compression of the material into the disc recess, and post dissolution analysis to observe any change in form. XRPD diffractograms were collected on the Bruker C2.

[3] = Gravimetric vapour sorption (GVS) analysis; details: for GVS mass increase: between 0 and 90% RH; for XRPD post GVS analysis: change of solid form after GVS; for GVS hygroscopicity: classification in words
[4] = one week (7 days), scaled-up / characterised material
[5] = one week, material isolated from salt/cocrystal screening experiments
[6] = one week (7 days), scaled-up / characterised material, listed as Form 2

Row | Compound | Storage 25° C./97% RH, XRPD [1, 4] | Storage 40° C./75% RH, XRPD [1, 4] | Storage 40° C./75% RH, XRPD [1, 5] | stability under storage [1] | IDR Sector 1 average (pH 2.0) [2] [μg/min/cm^2] | GVS mass increase [3] [%] | XRPD post GVS analysis [3] | also measured
1 | O=C(NCc1ncn2ccc(Cl)c(F)c12)c1cn(Cc2cn3cc(C4CC4)ccc3n2)nn1.O=C(O)/C=C/C(=O)O [Compound 9] | unchanged by XRPD | unchanged by XRPD | unchanged | stable under storage | 78.3 | 0.6 | no observed change | IDR Sector 1 pH 2.0 ([2]; listed as Fumarate Pattern 1): 76.8 μg/min/cm^2 and 79.8 μg/min/cm^2; XRPD Analysis Post Dissolution ([2]; listed as Compound 9 Pattern 1): Additional peaks observed in XRPD; XRPD Analysis Post Dissolution ([2]; listed as Fumarate Pattern 1): Additional peaks observed; GVS hygroscopicity ([3]; listed as Compound 9 Pattern 1): slightly hygroscopic; GVS hygroscopicity ([3]; listed as fumarate): reduced hygroscopicity
2 | O=C(NCc1ncn2ccc(Cl)c(F)c12)c1cn(Cc2cn3cc(C4CC4)ccc3n2)nn1.O=C(O)CCC(=O)O [Compound 4] | unchanged by XRPD | unchanged by XRPD | unchanged | stable under storage | 255.5 | 0.16 | no observed change | IDR Sector 1 pH 2.0 ([2]; listed as Succinate Pattern 1): 270.8 μg/min/cm^2 and 240.1 μg/min/cm^2; sector 1 IDR compared to free base form Compound 1 Form 1 / other forms [2]: increased sector 1 IDR; XRPD Analysis Post Dissolution ([2]; listed as Compound 4 Pattern 1): additional peaks observed in XRPD; XRPD Analysis Post Dissolution ([2]; listed as Succinate Pattern 1): Additional peaks observed; GVS hygroscopicity ([3]; listed as Compound 4 Pattern 1): non-hygroscopic; GVS hygroscopicity ([3]; listed as succinate): reduced hygroscopicity
3 | O=C(NCc1ncn2ccc(Cl)c(F)c12)c1cn(Cc2cn3cc(C4CC4)ccc3n2)nn1 [Amorphous form of Compound 1, N-((7-chloro-8-fluoroimidazo[1,5-a]pyridin-1-yl)methyl)-1-((6-cyclopropylimidazo[1,2-a]pyridin-2-yl)methyl)-1H-1,2,3-triazole-4-carboxamide] | convert to Form 1 | convert to Form 1 | – | – | – | – | convert to Form 1 | form conversion upon heating ([1]; heating to 150° C.): convert to Form 1
4 | O=C(NCc1ncn2ccc(Cl)c(F)c12)c1cn(Cc2cn3cc(C4CC4)ccc3n2)nn1 [Compound 1 Form 3, N-((7-chloro-8-fluoroimidazo[1,5-a]pyridin-1-yl)methyl)-1-((6-cyclopropylimidazo[1,2-a]pyridin-2-yl)methyl)-1H-1,2,3-triazole-4-carboxamide] | Unchanged by XRPD | Unchanged by XRPD | – | – | – | 0.5 | between 0 and 90% RH. Unchanged by XRPD post | GVS hygroscopicity [3]: Slightly hygroscopic
5 | O=C(NCc1ncn2ccc(Cl)c(F)c12)c1cn(Cc2cn3cc(C4CC4)ccc3n2)nn1 [Compound 11] | – | – | unchanged by XRPD | – | – | – | – | –
6 | CS(=O)(=O)O.O=C(NCc1ncn2ccc(Cl)c(F)c12)c1cn(Cc2cn3cc(C4CC4)ccc3n2)nn1 [Mesylate salt—Pattern 3] | – | – | unchanged | – | – | – | – | –
7 | CS(=O)(=O)O.O=C(NCc1ncn2ccc(Cl)c(F)c12)c1cn(Cc2cn3cc(C4CC4)ccc3n2)nn1 [Mesylate salt—Pattern 1] | – | – | changes to its XRPD pattern with peaks corresponding to Compound 1 Form 1 being present | – | – | – | – | –
8 | O=C(NCc1ncn2ccc(Cl)c(F)c12)c1cn(Cc2cn3cc(C4CC4)ccc3n2)nn1 [Compound 1 Form 2, N-((7-chloro-8-fluoroimidazo[1,5-a]pyridin-1-yl)methyl)-1-((6-cyclopropylimidazo[1,2-a]pyridin-2-yl)methyl)-1H-1,2,3-triazole-4-carboxamide] | Mixture of Compound 1 - Form 1, Compound 1 - | Free base, Compound 1 - Form 1 | – | – | 290.8 | – | decrease. Mixture of Freebase Patterns 2 & 3 | Storage 25° C./97% RH, XRPD [1, 6]: Peaks corresponding to a suspected hydrated phase; Storage 40° C./75% RH, XRPD [1, 6]: convert to Form 1; XRPD Analysis Post Dissolution [2]: Conversion to Compound 1 - Form 1; GVS increase in mass ([3]; between 80 and 90% RH): 4%; XRPD post GVS analysis ([3]; listed as Form 2): convert to Form 1; GVS hygroscopicity [3]: Hygroscopic
9 | CS(=O)(=O)O.O=C(NCc1ncn2ccc(Cl)c(F)c12)c1cn(Cc2cn3cc(C4CC4)ccc3n2)nn1 [Mesylate salt—Pattern 2] | – | – | unchanged | – | – | – | – | –
10 | O=C(NCc1ncn2ccc(Cl)c(F)c12)c1cn(Cc2cn3cc(C4CC4)ccc3n2)nn1.O=C(O)C(O)C(O)C(=O)O [Compound 7] | unchanged by XRPD | unchanged by XRPD | unchanged | – | 656.4 | 3.4 | No observed change | IDR Sector 1 pH 2.0 ([2]; listed as L-Tartrate Pattern 1): 647.0 μg/min/cm^2 and 665.7 μg/min/cm^2; XRPD Analysis Post Dissolution [2]: poorly crystalline post analysis; GVS hygroscopicity ([3]; listed as Compound 7 Pattern 1): hygroscopic; GVS hygroscopicity ([3]; listed as L-Tartrate Pattern 1): Poorly crystalline, hygroscopic; GVS hygroscopicity ([3]; listed as L-tartrate): hygroscopic
11 | O=C(NCc1ncn2ccc(Cl)c(F)c12)c1cn(Cc2cn3cc(C4CC4)ccc3n2)nn1.O=C(O)C[C@H](O)C(=O)O [Compound 3] | unchanged by XRPD | unchanged by XRPD | Slight changes | stable under storage | 1791 | 0.22 | no observed change | IDR Sector 1 pH 2.0 ([2]; listed as L-malate Pattern 1): 1569 μg/min/cm^2 and 2013 μg/min/cm^2; sector 1 IDR compared to free base form Compound 1 Form 1 / other forms ([2]; listed as Compound 3 Form 1): highest IDR; sector 1 IDR compared to free base form Compound 1 Form 1 / other forms ([2]; listed as Compound 3 Pattern 1): increased sector 1 IDR; XRPD Analysis Post Dissolution ([2]; listed as Compound 3 Pattern 1): additional peaks observed in XRPD; XRPD Analysis Post Dissolution ([2]; listed as L-malate Pattern 1): Additional peaks observed; GVS hygroscopicity ([3]; listed as Compound 3 Pattern 1): slightly hygroscopic; GVS hygroscopicity ([3]; listed as L-malate): reduced hygroscopicity
12 | O=C(NCc1ncn2ccc(Cl)c(F)c12)c1cn(Cc2cn3cc(C4CC4)ccc3n2)nn1.O=P(O)(O)O [Compound 5] | unchanged by XRPD | unchanged by XRPD | unchanged | stable under storage | 404.1 | 1.2 | no observed change | IDR Sector 1 pH 2.0 ([2]; listed as Phosphate Pattern 1): 364.7 μg/min/cm^2 and 443.4 μg/min/cm^2; sector 1 IDR compared to free base form Compound 1 Form 1 / other forms [2]: increased sector 1 IDR; XRPD Analysis Post Dissolution ([2]; listed as Phosphate Pattern 1): Partial conversion to Compound 1; GVS hygroscopicity ([3]; listed as Compound 5 Pattern 1): slightly hygroscopic; GVS hygroscopicity ([3]; listed as phosphate): reduced hygroscopicity
13 | O=C(NCc1ncn2ccc(Cl)c(F)c12)c1cn(Cc2cn3cc(C4CC4)ccc3n2)nn1 [Compound 6] | – | – | – | stable under storage | – | – | – | –

— patent US20230167132A1, “FORMS AND COMPOSITIONS OF INHIBITORS OF PLASMA KALLIKREIN” (Takeda Pharmaceutical Company Limited, priority 2020, published 2023)
